{"source": "patent US10308631B2", "about": "“Selective anti-cancer compounds” (NATIONAL UNIVERSITY OF SINGAPORE, priority 2015, dated 2019)", "assay_type_in_all_cases": "cell-based, human", "key": {"HeLa cells": {"tested_on": "HeLa cells", "assay": "Soft agar colony formation assay (anchorage-independent growth)", "details": "sub-micromolar concentrations, seven days", "procedure": "FIG. 8 is a histogram showing that Compound 1 (a131) potently suppresses anchorage-independent growth of cancer cells. HeLa cells were suspended in 2 mL of soft agar at the final concentration of 0.4%, and were then placed on the top of 2 mL layer of 1% agar in 6-well plates, in triplicate. Subsequently, Compound 1 (a131) was added to the plates at concentrations of 0, 0.15, 0.3, 0.6, 1.25. 2.5 and 5 μM. Seven (7) days after the addition of Compound 1 (a131) to soft agar cultures, the number of colonies per plate were counted in an unbiased manner using automated MATLAB software. The average number of colonies from triplicates was plotted with standard deviations.\nSoft agar colony formation assays are known to better mimic the features of in vivo tumours growing in three dimensions than cancer cell lines growing in an in vitro tissue culture. Therefore, the anti-proliferative effects of Compound 1 on cancer cells growing anchorage-independently in soft agar were studied too.\nHeLa cells as cultured in Biology Example 1 (1×10^4 cells/well) were suspended in 2 mL of soft agar at a final concentration of 0.4%. […] Seven days after the addition of Compound 1, the number of colonies per plate was counted in an unbiased manner using MATLAB software."}, "[1]": {"tested_on": "non-transformed BJ cells depleted of p53 by shRNA-mediated knockdown", "assay": "BrdU incorporation and FACS analysis (cell cycle arrest), p53 knockdown", "details": "2.5 and 5 μM, 24 h", "procedure": "A: is output from a FACS analysis of isogenic-non-transformed, without (panels a-c) (WT) or with (panels d-f) shRNA-mediated knockdown of p53 (p53KD), and oncogene-transformed BJ cells (panels g-i), each treated with 0, 5 or 2.5 μM Compound 1 (a131) for 24 h. Cells were doubly stained with PI (horizontal axis) and BrdU (vertical axis). The BrdU-positive population in panels a-c are indicated as arrows. B: is a diagrammatic representation of an immunoblot analysis showing isogenic non-transformed (normal) and oncogene-transformed BJ cells (transformed) treated with Compound 1 (a131) at 0, 2.5 or 5 μM for 24 h or 48 h. Cells were harvested and total lysates were analysed by detecting p53 and p21. Antibodies raised against β-actin were used as an internal loading control. C and D are histograms showing the percentage of bromodeoxyuracil (BrdU)-positive non-transformed (normal) BJ cells. C: Cells were treated with Group 1 Compound 1 (a131) at 2.5 and 5 μM, Compound 23 (b36) at 2.5 and 5 μM, and Compound 21 (b35) at 5 μM, and Group 2 Compound 25 (a166) at 2.5 and 5 μM, for 24 h. Cells were doubly stained with propidium iodide (PI) and BrdU, and subjected to FACS analysis. The BrdU-positive population are plotted as bars. […]"}, "[2]": {"tested_on": "HeLa cells (mitotic spindles, β-tubulin/DAPI)", "assay": "Immunofluorescence analysis of mitotic spindles and chromosomes", "details": "6 h, Compound 1 2.5 μM, CQ 15 or 25 μM", "procedure": "HeLa cells, treated with Compound 1 (a131) at 2.5 μM (FIG. 3b), chloroquine (CQ) at 15 μM (FIG. 3c) or 25 μM (FIG. 3d), or DMSO (FIG. 3a) for 6 h, were fixed in methanol and subjected to immunofluorescence analysis using antibodies against β-tubulin to visualize proper formation of mitotic spindles. The condensed mitotic chromosomes were visualized by counterstaining with DAPI. Only Compound 1 (a131)-treated HeLa cells arrested in mitosis with misaligned chromosomes and disorganized spindles (FIG. 3b). The bars in FIGS. 3a-d represent 5 μm in length.\nTo confirm the inhibitory mitotic progression ability, HeLa cervical cancer cells as cultured above were treated with Compound 1 (2.5 μM, DMSO), CQ (15 or 25 μM, DMSO) or DMSO for 6 h. The treated cells were fixed in methanol and subjected to immunofluorescence analysis using antibodies against β-tubulin (Abcam, Cat#ab52623) to visualize proper formation of mitotic spindles. The condensed mitotic chromosomes were visualized by counterstaining with DAPI."}}, "data": [{"compound": "N#C/C(=C\\c1cccc2cnccc12)c1c[nH]c2ccccc12", "note": "[Compound 1, (Z)-2-(1H-indol-3-yl)-3-(isoquinolin-5-yl)acrylonitrile]", "values": [{"measurement": "reduction of HeLa cell colonies grown in soft agar", "setting": "HeLa cells", "result": "greater than 50%"}, {"measurement": "cell cycle arrest in p53-depleted cells", "setting": "[1]", "result": "ability of Compound 1 to induce cell cycle arrest was compromised"}, {"measurement": "mitotic arrest, chromosome alignment and mitotic spindles", "setting": "[2]", "result": "arrested in mitosis with massively misaligned chromosomes and disorganized mitotic spindles"}]}]}
